Holding throughout (experiment): NCI-60 cell line screen, 48 h
Assay [1] concerns 786-0 renal.
The subject of assay [2] is ACHN renal.
Assay [3] relates to CCRF-CEM leukemia.
Assay [4] has as its system OVCAR-3 ovarian.
Assay [5] relates to SR leukemia.
Assay [6] concerns TK-10 renal.
For assay [7], the system named is CAKI-1 renal.
The test system of assay [8] is NCI/ADR-RES ovarian.
In assay [9] the test system is MDA-MB-435.

Several values for one entry are separate records, joined by “and”; a condition that tells them apart may be missing. Equal entries are not always repeated.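 How tested: cells in 96-well plates exposed to compound for 48 hours at five concentrations. At the GI50, growth is halved. TGI denotes the concentration required for complete inhibition of growth.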

For `CC(C)(C)C1CCC(O)(c2ccccc2)CC1` (stereo unspecified), the TGI was > 100 µM and 41.6 µM in [1]; > 100 µM and 59.9 µM in assay [2]; above 100 µM in assay [3]; > 100 µM and 41.7 µM in assay [4]; > 100 µM and 33 µM in assay [5]; > 100 µM and 53.1 µM in assay [6].

As for `COc1ccc2cc3n(c(=O)c2c1)CCc1c-3cc(OC)c(OC)c1OC`, the TGI in assay [1], in assay [2], in assay [7], in assay [3], in assay [4] and in assay [5] was above 100 µM each time. In addition, the TGI in assay [6] is above 100 µM.

For `CN(C)c1ccc(/C=c2/sc3nc(=O)c(-c4ccccc4NC(=O)C(F)(F)F)nn3c2=O)cc1`, the TGI in assay [1], in assay [2], in assay [7], in [3], in assay [4] and in assay [5] was above 100 µM throughout. In assay [6], this compound displayed a TGI above 100 µM.

Consider `COc1cc2c(Oc3ccc(-c4cnc(Nc5ccc(F)cc5)n(C)c4=O)cc3F)ccnc2cc1OCCCN1CCOCC1`, for which the GI50 was 1.54 µM in assay [1]; 0.864 µM in assay [2]; 1.05 µM in assay [7]; 3.04 µM in assay [3]; 1.94 µM in [8]; 1.64 µM in [4]. For the same compound, the GI50 in assay [6] is 1.94 µM. Moreover, the TGI in assay [1] is 3.1 µM; in assay [2] it was 2.15 µM; in assay [7], 2.46 µM; in assay [3], above 100 µM; in assay [8], 6.75 µM; in assay [4], 3.15 µM. The compound also returned a TGI in assay [6] of 3.92 µM.

For `CC(C)(C)c1ccc(OCCOCCOc2ccc(C(C)(C)C)cc2S(N)(=O)=O)c(S(N)(=O)=O)c1`, the TGI in [1], in assay [2], in [7], in assay [3], in assay [4] and in [6] was above 100 µM each time.

For `ON1CCc2c([nH]c3ccccc23)C1c1ccc(Cl)cc1` (stereo unspecified), the TGI in assay [1] is above 100 µM; in assay [2] it was above 100 µM; in [3], 93.8 µM; in assay [4], 74.5 µM; in [5], above 100 µM; in assay [6], above 100 µM.

Turning to `CNS(=O)(=O)NNS(=O)(=O)c1ccc(C)cc1`, the TGI in assay [1], in [2], in assay [7], in assay [3], in assay [4] and in assay [5] was above 100 µM in each case. Further, the TGI in assay [6] is above 100 µM.

As to `CN(C)c1ccc(/C=C2\CCc3ccccc3C2=O)cc1Br`, the TGI in [1], in [2], in assay [7], in [3], in assay [4] and in [5] was above 100 µM each time. In [6], the TGI is above 100 µM.

For the compound `O=c1c2cc(Br)ccc2nc(CNc2ccccc2)n1-c1ccccc1`, the TGI is 28.4 µM in [1]; above 49.9 µM in [2]; 11.6 µM in assay [7]; 13.7 µM in assay [3]; 48.5 µM in assay [4]; above 30.4 µM in assay [5]. The compound also returned a TGI in [6] of 45.5 µM.

Take `CCC12C=C(C(=O)OC)N3c4ccccc4C4CCN(CCC1)C2C43` (stereo unspecified): the TGI in [1] was 60.9 µM; in assay [2] it was above 100 µM; in assay [7], above 100 µM; in assay [3], above 100 µM; in assay [4], above 100 µM; in [6] it was above 100 µM.

For the compound `N#CC1(CCCCl)CCCCC1`, the TGI in assay [1], in assay [2], in [3], in [4], in assay [5] and in [6] was above 100 µM throughout.

Consider `OC[C@H]1C[C@](O)(c2ccc(F)cc2)[C@@H](c2ccc(F)cc2)O1`, for which the GI50 in assay [1], in assay [2], in [7], in assay [3], in assay [9] and in [8] was above 100 µM each time. Further, the GI50 in [4], in assay [5] and in assay [6] was above 100 µM each time. For the same compound, the TGI in [1], in assay [2], in assay [7], in [3], in [9] and in [8] was above 100 µM in each case. Besides, the TGI in [4], in [5] and in assay [6] was above 100 µM in each case.

For `CCCCC(C(=O)C(=O)Nc1ccccc1CC)C(=O)C(C)C` (stereo unspecified), the TGI in [1], in assay [2], in assay [7], in [3], in [4] and in assay [6] was above 100 µM each time.

`Nc1ccccc1C(=O)/C=C/c1ccccc1O`: the TGI in assay [1], in [7], in assay [3], in [4] and in [6] was above 100 µM each time.

Consider `O=C1c2ccccc2C2(O)N(c3ccccc3)C(=S)N(c3ccccc3)C12O` (stereo unspecified), for which the TGI in assay [1], in assay [2], in [7], in assay [3], in [4] and in assay [6] was above 100 µM in each case.

Take `CC(C)CCCC(C)C1CCC2C3CC([N+](=O)[O-])=C4CC(O)CCC4(C)C3CCC12C` (stereo unspecified): the TGI in assay [1] was 33 µM; in assay [2], above 100 µM; in assay [7] it was 66 µM; in assay [3] it was 42.9 µM; in assay [4] it was 49.4 µM; in [5], 34.1 µM. Also, the TGI in [6] was determined as 39.6 µM.

The record behind these values is PubChem BioAssay (NCI).
